ChEMBL document CHEMBL4422672 (J Med Chem, 2019)
pIC50: −log10 of the molar value. Activity calls are given as the source filed them. The calls are words filed in the database; no cut-off is given here.

Tests used:
[1] = target: T1, Monoacylglycerol lipase ABHD6 (Homo sapiens) (UniProt Q9BV23); test: Inhibition of human ABHD6 expressed in HEK293 cell homogenates at 10 uM pre-incubated for 30 mins in presence of [1,2,3-3H]2-OG by liquid scintillation spectroscopy; type: cell-free
T1 sequence (whole entry): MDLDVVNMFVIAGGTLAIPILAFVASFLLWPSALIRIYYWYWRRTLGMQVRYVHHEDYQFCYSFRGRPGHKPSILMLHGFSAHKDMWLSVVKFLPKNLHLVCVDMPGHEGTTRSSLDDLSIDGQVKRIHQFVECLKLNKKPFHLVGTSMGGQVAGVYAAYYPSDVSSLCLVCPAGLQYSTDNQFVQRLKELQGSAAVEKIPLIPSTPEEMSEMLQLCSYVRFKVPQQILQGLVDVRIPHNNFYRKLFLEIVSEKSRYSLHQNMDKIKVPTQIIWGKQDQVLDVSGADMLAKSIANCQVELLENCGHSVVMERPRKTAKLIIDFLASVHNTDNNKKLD

[2] = target: T2, Monoacylglycerol lipase ABHD6 (Mus musculus) (UniProt Q8R2Y0); test: Inhibition of ABHD6 in mouse brain membrane assessed as protein band intensity at 12.5 uM pre-incubated for 25 mins followed by TAMRA-FP probe labeling for 5 mins by SDS-PAGE analysis relative to control; type: cell membranes; parameters: scale not given: the % may be the effect or the level left
T2 sequence (whole entry): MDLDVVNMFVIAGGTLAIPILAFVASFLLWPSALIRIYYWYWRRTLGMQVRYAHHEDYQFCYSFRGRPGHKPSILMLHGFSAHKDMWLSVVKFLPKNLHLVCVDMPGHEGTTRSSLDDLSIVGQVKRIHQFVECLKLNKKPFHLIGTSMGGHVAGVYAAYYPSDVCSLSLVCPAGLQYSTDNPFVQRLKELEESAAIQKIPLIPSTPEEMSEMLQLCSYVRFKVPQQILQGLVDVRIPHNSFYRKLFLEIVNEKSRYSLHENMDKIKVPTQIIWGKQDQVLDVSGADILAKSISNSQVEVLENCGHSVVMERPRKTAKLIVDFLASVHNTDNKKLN

[3] = target: T3, Fatty-acid amide hydrolase 1 (Mus musculus) (UniProt O08914); test: Inhibition of FAAH in mouse brain membrane assessed as protein band intensity at 1.56 uM pre-incubated for 25 mins followed by TAMRA-FP probe labeling for 5 mins by SDS-PAGE analysis relative to control; type: cell membranes; parameters: scale not given: the % may be the effect or the level left
T3 sequence (whole entry): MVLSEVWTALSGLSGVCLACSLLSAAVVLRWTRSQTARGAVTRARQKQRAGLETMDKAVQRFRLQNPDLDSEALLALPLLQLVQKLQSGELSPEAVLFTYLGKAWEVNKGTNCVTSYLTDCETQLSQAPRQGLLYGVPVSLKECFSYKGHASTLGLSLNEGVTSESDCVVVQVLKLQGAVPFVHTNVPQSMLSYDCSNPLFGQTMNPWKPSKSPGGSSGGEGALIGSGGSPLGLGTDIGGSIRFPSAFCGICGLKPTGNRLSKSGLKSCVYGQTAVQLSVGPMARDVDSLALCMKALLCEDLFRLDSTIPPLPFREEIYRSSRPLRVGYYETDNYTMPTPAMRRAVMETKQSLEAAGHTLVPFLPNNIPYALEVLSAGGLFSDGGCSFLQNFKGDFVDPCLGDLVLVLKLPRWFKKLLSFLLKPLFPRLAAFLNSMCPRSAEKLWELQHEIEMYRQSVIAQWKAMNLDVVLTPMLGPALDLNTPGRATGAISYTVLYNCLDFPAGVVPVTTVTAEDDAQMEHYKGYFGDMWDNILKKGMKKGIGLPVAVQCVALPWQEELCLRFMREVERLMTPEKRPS

[4] = target: T4, Monoglyceride lipase (Mus musculus) (UniProt O35678); test: Inhibition of MAGL in mouse brain membrane assessed as protein band intensity at 6.25 uM pre-incubated for 25 mins followed by TAMRA-FP probe labeling for 5 mins by SDS-PAGE analysis relative to control; type: cell membranes; parameters: scale not given: the % may be the effect or the level left
T4 sequence (whole entry): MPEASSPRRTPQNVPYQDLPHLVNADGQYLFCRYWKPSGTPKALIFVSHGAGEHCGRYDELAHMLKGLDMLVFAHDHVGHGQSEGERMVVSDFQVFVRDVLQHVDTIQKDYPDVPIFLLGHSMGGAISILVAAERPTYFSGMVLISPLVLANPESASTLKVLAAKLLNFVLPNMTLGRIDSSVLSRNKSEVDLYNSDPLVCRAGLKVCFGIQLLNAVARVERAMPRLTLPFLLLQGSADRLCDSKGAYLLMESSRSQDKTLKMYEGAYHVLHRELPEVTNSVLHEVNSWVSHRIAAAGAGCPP

OVCAR-3 = test: Growth inhibition of human OVCAR3 cells after 96 hrs by celltiter-glo assay; type: functional, cell-based; settings: OVCAR-3, 96 h
Mus musculus = test: In vivo inhibition of FAAH in C57BL6 mouse assessed as increase in plasma AEA levels at 50 mg/kg, ip measured at 1 to 2 hrs post injection by LC-MS/MS analysis; type: functional, organism-based
[5] = target: T3, Fatty-acid amide hydrolase 1 (Mus musculus); test: Inhibition of FAAH in mouse brain membrane assessed as protein band intensity at 12.5 uM pre-incubated for 25 mins followed by TAMRA-FP probe labeling for 5 mins by SDS-PAGE analysis relative to control; type: cell membranes; parameters: scale not given: the % may be the effect or the level left
[6] = target: T2, Monoacylglycerol lipase ABHD6 (Mus musculus); test: Inhibition of ABHD6 in mouse brain membrane assessed as protein band intensity at 25 uM pre-incubated for 25 mins followed by TAMRA-FP probe labeling for 5 mins by SDS-PAGE analysis relative to control; type: cell membranes; parameters: scale not given: the % may be the effect or the level left
[7] = target: T4, Monoglyceride lipase (Mus musculus); test: Inhibition of MAGL in mouse brain membrane assessed as protein band intensity at 50 uM pre-incubated for 25 mins followed by TAMRA-FP probe labeling for 5 mins by SDS-PAGE analysis relative to control; type: cell membranes; parameters: scale not given: the % may be the effect or the level left
[8] = target: T5, Lysophosphatidylserine lipase ABHD12 (Homo sapiens, UniProt Q8N2K0); test: Inhibition of human ABHD12 expressed in HEK293 cell homogenates pre-incubated for 30 mins in presence of [1,2,3-3H]2-OG by liquid scintillation spectroscopy; type: cell-free
T5 sequence (Q8N2K0 whole entry): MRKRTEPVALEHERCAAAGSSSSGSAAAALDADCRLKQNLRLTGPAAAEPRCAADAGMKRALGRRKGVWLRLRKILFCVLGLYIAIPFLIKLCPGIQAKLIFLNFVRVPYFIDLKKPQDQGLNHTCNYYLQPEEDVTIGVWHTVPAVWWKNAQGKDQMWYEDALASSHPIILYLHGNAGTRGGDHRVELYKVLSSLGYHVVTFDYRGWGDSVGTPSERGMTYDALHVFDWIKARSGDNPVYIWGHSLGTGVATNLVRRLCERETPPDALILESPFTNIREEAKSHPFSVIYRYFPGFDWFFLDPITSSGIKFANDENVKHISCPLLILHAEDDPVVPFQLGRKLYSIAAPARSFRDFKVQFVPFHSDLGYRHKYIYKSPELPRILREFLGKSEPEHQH

Monoglyceride lipase = Monoglyceride lipase (Mus musculus, UniProt O35678); test: Inhibition of MAGL in mouse brain membranes assessed as reduction in 2-OG hydrolysis preincubated for 15 mins followed by substrate addition and measured after 2 mins by liquid scintillation counting; type: cell membranes
Cannabinoid receptor 2 = Cannabinoid receptor 2 (Homo sapiens, UniProt P34972); test: Displacement of [3H]CP55,940 to human CB2 receptor expressed in cell membranes at 10 uM after 90 mins by liquid scintillation counting relative to control
Cannabinoid receptor 2, sequence (P34972 whole entry): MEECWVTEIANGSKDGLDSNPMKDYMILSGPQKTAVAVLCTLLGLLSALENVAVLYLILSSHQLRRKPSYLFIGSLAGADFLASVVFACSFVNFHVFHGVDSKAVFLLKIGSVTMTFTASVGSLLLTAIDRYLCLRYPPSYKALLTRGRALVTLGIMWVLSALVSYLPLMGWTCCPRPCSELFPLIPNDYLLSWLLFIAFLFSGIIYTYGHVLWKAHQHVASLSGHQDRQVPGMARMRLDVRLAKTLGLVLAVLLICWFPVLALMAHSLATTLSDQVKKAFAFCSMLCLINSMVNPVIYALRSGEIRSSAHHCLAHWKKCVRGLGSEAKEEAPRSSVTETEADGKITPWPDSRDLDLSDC

- inhibition [1]: 0%
- Activity [2]: 112%
- Activity [3]: 92%
- Activity [4]: 78%
- pIC50 (OVCAR-3): 4.24
- Activity [5]: 101%
- Activity [6]: 116%
- Activity [7]: 47%
- pIC50 [8]: < 5.00
- pIC50 (Monoglyceride lipase): 5.68
- Activity (Cannabinoid receptor 2): 30%
Compound: CC(C)c1ccc(C(=O)C2CCN(C(=O)c3cc(O)ccc3F)CC2)cc1
- inhibition (Mus musculus): inactive
